pKd: −log10 of the molar value. Read-outs that look alike come from different tables or passages of the source.
What was measured:
PRAS40 [1] = molecular target: T1, PRAS40 (Homo sapiens, UniProt Q96B36); test: ligand fishing from Erxian decoction with immobilized PRAS40, LC-MS identification; assay type: binding; details: PBS-Tween, pH 7.4, eluted from Ni-NTA beads, identified from extract by MS only
T1 construct: gene AKT1S1; His-tagged, purchased from Genscript (Nanjing); UniProt Q96B36 (human) given only for the docking receptor

PRAS40 [2] = molecular target: T1, PRAS40; test: isothermal titration calorimetry; assay type: binding; details: for Kd: read-out: Ka (M^-1) (converted); for pKd: read-out: Kd
From the text: isothermal titration calorimetry on PRAS40

Row | Kd (PRAS40 [2]) | pKd (PRAS40 [2]) | Structure (SMILES) | ligand fishing from Erxian decoction with immobilized PRAS40, LC-MS identificati (PRAS40 [1]) | ligand fishing from Erxian decoction with immobilized PRAS40, LC-MS identificati (PRAS40 [1]; named as PAINS by the paper)
1 | – | – | O=[N+]([O-])c1ccc(O)cc1 [4-nitrophenol] | The immobilized PRAS40 isolated indole, 4-nitrophenol, terephthalic acid | –
2 | 2620 nM | 5.58 | c1ccc2[nH]ccc2c1 [indole] | – | –
3 | 352 nM | 6.45 | COc1cc2c(cc1OC)-c1cc3ccc(OC)c(OC)c3c[n+]1CC2 [palmatine] | – | –
4 | – | – | COc1cc(/C=C/C=O)cc(OC)c1O [sinapinaldehyde] | – | palmatine, sinapinaldehyde, and 3-chloroaniline as the potential ligands binding to PRAS40
5 | – | – | O=C(O)c1ccc(C(=O)O)cc1 [terephthalic acid] | The immobilized PRAS40 isolated indole, 4-nitrophenol, terephthalic acid | –

Reference: PMC10839085, “Screening and evaluation of metabolites binding PRAS40 from Erxian decoction used to treat spinal cord injury” (Frontiers in Pharmacology, 2024)
